Measured values reported in patent publication US10918645B2 (LIFEARC, priority 2016, dated 2021).

Legend:
Type in all cases: biochemical
Conditions in all cases: 1 μM inhibitor concentration
SGK1 = SGK1 (Homo sapiens (Human), UniProt O00141); assay: SGK1 kinase selectivity assay
Method: SGK (5-20 mU diluted in 20 mM MOPS pH 7.5, 1 mM EDTA, 0.01% Brij35, 5% glycerol, 0.1% b-mercaptoethanol, 1 mg/ml BSA) is assayed against a modified Crosstide peptide […] in a final volume of 25.5 μl containing 8 mM MOPS pH 7.0, 0.2 mM EDTA, 30 μM substrate peptide, 10 mM magnesium acetate and 0.02 mM [33P-g-ATP] (50-1000 cpm/pmole) and incubated for 30 min at room temperature. Assays are stopped by addition of 5 μl of 0.5 M (3%) orthophosphoric acid and then harvested onto P81 Unifilter plates with a wash buffer of 50 mM orthophosphoric acid.

IR = IR (Homo sapiens (Human), UniProt P06213); assay: IR kinase selectivity assay
Method: (§1) IR-HIS (5-20 mU diluted in 50 mM Tris pH 7.5, 0.1 mM EGTA, 1 mg/ml BSA) is assayed against a substrate peptide ([…]) in a final volume of 25.5 μl containing 50 mM Tris pH 7.5, 300 µM substrate peptide, 10 mM magnesium acetate and 0.02 mM [33P-g-ATP] (50-1000 cpm/pmole) and incubated for 30 min at room temperature. Assays are stopped by addition of 5 μl of 0.5 M (3%) orthophosphoric acid and then harvested onto P81 Unifilter plates with a wash buffer of 50 mM orthophosphoric acid.

PKCz = PKCz (Homo sapiens (Human), UniProt Q05513); assay: PKCz kinase selectivity assay
Method: (§2) PKC zeta (5-20 mU diluted in 50 mM Tris pH 7.5, 0.1 mM EGTA, 0.1% b-mercaptoethanol, 1 mg/ml BSA, 100 μM Vanadate) is assayed against a substrate peptide ([…]) in a final volume of 25.5 μl containing 50 mM Tris pH 7.5, 0.05% b-mercaptoethanol, 10 M Vanadate, 300 μM substrate peptide, 10 mM magnesium acetate and 0.005 mM [33P-g-ATP] (50-1000 cpm/pmole) and incubated for 30 min at room temperature. Assays are stopped by addition of 5 μl of 0.5 M (3%) orthophosphoric acid and then harvested onto P81 Unifilter plates with a wash buffer of 50 mM orthophosphoric acid.

RSK2 = RSK2 (Homo sapiens (Human), UniProt P51812); assay: RSK2 kinase selectivity assay
Method: MAPKAP-K1b (5-20 mU diluted in 20 mM MOPS pH 7.5, 1 mM EDTA, 0.01% Brij35, 5% glycerol, 0.1% b-mercaptoethanol, 1 mg/ml BSA) is assayed against substrate peptide ([…]) in a final volume of […] containing 50 mM Na-b-glycerophosphate (pH 7.5), 0.5 mM EDTA, 30 μM substrate peptide, 10 mM magnesium acetate and 0.05 mM [33P-g-ATP] (50-1000 cpm/pmole) and incubated for 30 min at room temperature. Assays are stopped by addition of 5 μl of 0.5 M (3%) orthophosphoric acid and then harvested onto P81 Unifilter plates with a wash buffer of 50 mM orthophosphoric acid.

EF2K = EF2K (Homo sapiens (Human), UniProt O00418); assay: EF2K kinase selectivity assay
Method: as §2, with “EF2K” for “PKC zeta”, “Hepes” for “Tris”, “6.6,” for “7.5, 0.1 mM EGTA,”, “BSA)” for “BSA, 100 μM Vanadate)”, “6.6, 0.2 mM CaCl2, 0.3 μM Calmodulin,” for “7.5,”, “b-mercaptoethanol,” for “b-mercaptoethanol, 10 M Vanadate,”

MST4 = MST4 (Homo sapiens (Human), UniProt Q9P289); assay: MST4 kinase selectivity assay
Method: 5-20 mU of MST4 (diluted in 50 mM Tris (pH 7.5), 0.1 mM EGTA) is assayed against MBP in a final volume of […] containing 50 mM Tris (pH 7.5), 0.1 mM EGTA, 0.33 mg/ml MBP, 10 mM magnesium acetate and 0.02 mM [33P-g-ATP](500-1000 cpm/pmole) and incubated for 30 mins at room temperature. Assays are stopped by addition of […] of 0.5M (3%) orthophosphoric acid. Assays are harvested onto P81 Unifilter plates using a wash buffer of 50 mM orthophosphoric acid.

MELK = MELK (Homo sapiens (Human), UniProt Q14680); assay: MELK kinase selectivity assay
Method: as §1, with “MELK” for “IR-HIS”, “EGTA, 0.1% b-mercaptoethanol,” for “EGTA,”, “0.05% b-mercaptoethanol, 200 μM” for “300 µM”, “0.05” for “0.02”

PDK1 = PDK1 (Homo sapiens (Human), UniProt O15530); assay: PDK1 kinase selectivity assay
Method: PDK1 (5-20 mU diluted in 50 mM Tris pH 7.5, 0.05% b-mercaptoethanol, 1 mg/ml BSA) is assayed against PDKtide ([…]-[…]) in a final volume of 25.5 μl containing 50 mM Tris pH 7.5, 0.05% b-mercaptoethanol, 100 μM substrate peptide, 10 mM magnesium acetate and 0.02 mM [33P-g-ATP](50-1000 cpm/pmole) and incubated for 30 min at room temperature Assays are stopped by addition of 5 μl of 0.5 M (3%) orthophosphoric acid and then harvested onto P81 Unifilter plates with a wash buffer of 50 mM orthophosphoric acid.

GCK = GCK (Homo sapiens (Human), UniProt Q12851); assay: GCK kinase selectivity assay
Method: GCK (5-20 mU diluted in 50 mM Tris pH 7.5, 0.1 mM EGTA, 0.1% β-mercaptoethanol, 1 mg/ml BSA) is assayed against MBP in a final volume of 25.5 μl containing 50 mM Tris pH 7.5, 0.1 mM EGTA, 0.33 mg/ml MBP, 10 mM magnesium acetate and 0.02 mM [33P-γ-ATP] (50-1000 cpm/pmole) and incubated for 30 min at room temperature. Assays are stopped by addition of 5 μl of 0.5 M (3%) orthophosphoric acid and then harvested onto P81 Unifilter plates with a wash buffer of 50 mM orthophosphoric acid.

Sequence of GCK (Q12851 whole entry): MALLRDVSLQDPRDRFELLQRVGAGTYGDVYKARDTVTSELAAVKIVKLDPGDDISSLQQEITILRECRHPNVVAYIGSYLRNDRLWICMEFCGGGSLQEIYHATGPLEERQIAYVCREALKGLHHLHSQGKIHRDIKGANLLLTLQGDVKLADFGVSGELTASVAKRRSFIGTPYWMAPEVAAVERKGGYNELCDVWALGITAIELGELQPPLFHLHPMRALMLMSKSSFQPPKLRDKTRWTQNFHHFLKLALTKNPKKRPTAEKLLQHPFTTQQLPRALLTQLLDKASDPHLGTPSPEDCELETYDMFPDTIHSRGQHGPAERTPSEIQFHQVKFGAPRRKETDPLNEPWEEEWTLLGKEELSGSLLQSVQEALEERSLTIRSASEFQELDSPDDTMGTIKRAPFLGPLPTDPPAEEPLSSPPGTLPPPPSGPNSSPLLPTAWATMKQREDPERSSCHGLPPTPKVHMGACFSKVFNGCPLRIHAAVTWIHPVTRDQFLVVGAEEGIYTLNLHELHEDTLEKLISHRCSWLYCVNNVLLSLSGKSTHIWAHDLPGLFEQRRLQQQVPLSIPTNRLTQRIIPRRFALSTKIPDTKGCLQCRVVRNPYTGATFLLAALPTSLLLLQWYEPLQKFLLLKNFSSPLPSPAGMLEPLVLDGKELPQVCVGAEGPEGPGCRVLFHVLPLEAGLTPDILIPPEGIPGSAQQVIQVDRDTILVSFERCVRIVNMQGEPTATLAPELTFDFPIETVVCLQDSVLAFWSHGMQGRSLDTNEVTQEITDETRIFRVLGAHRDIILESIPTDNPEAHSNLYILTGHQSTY
Sequence of RSK2 (P51812 whole entry, species assumed): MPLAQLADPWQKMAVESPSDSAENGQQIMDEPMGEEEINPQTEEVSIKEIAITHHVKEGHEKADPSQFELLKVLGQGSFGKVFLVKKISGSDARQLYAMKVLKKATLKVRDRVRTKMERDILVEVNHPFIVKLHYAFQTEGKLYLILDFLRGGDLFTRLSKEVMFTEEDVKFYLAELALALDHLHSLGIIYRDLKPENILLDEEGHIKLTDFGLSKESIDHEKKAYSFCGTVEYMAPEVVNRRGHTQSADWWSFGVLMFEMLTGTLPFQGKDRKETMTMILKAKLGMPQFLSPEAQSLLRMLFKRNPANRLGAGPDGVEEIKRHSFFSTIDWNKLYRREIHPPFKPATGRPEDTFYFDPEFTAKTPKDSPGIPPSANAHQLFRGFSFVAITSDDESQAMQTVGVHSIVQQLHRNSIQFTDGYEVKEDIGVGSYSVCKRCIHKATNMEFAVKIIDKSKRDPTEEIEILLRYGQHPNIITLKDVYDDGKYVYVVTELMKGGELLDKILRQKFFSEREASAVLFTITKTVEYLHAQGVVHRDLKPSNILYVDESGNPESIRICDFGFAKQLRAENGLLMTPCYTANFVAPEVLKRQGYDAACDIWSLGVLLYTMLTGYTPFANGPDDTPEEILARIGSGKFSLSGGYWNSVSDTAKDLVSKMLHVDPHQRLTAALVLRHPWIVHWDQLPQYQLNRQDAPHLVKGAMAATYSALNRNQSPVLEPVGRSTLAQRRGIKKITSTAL
Sequence of SGK1 (O00141 whole entry, species assumed): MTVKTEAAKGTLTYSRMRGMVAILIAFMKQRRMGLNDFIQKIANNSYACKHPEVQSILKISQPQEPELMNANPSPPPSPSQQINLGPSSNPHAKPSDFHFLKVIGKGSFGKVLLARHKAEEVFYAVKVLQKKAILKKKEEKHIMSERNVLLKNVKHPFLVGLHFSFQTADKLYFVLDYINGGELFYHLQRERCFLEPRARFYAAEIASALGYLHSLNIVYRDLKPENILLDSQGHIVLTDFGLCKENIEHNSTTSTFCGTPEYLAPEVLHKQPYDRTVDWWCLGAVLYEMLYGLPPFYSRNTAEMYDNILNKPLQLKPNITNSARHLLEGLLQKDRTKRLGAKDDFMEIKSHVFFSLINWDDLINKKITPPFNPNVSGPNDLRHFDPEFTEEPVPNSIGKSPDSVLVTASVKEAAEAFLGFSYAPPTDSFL
Sequence of PDK1 (O15530 whole entry): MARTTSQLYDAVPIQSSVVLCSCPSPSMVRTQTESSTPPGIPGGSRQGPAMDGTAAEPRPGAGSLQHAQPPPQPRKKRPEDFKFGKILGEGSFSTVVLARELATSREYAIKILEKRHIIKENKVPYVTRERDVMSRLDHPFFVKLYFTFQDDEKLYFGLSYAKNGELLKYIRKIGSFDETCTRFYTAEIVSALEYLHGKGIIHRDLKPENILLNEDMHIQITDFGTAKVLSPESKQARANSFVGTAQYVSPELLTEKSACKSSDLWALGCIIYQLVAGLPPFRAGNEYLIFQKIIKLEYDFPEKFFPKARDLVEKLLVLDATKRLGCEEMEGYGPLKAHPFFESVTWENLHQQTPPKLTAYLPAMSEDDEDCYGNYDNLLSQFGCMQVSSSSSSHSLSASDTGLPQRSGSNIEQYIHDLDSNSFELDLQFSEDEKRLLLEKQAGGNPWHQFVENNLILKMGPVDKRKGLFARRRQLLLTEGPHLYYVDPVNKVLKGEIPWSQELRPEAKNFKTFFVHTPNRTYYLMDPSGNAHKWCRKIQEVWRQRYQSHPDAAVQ
Sequence of MST4 (Q9P289 whole entry, species assumed): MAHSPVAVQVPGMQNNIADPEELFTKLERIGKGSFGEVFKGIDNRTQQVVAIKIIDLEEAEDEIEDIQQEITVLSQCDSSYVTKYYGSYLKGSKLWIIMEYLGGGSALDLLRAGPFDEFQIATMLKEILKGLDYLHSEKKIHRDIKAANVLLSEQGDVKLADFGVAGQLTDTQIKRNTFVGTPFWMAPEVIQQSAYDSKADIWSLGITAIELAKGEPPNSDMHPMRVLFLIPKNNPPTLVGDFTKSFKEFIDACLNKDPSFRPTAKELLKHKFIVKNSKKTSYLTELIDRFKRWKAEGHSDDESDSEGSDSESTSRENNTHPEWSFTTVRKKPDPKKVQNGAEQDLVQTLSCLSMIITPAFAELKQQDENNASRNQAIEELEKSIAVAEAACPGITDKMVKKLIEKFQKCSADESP
Sequence of IR (P06213 28-1382): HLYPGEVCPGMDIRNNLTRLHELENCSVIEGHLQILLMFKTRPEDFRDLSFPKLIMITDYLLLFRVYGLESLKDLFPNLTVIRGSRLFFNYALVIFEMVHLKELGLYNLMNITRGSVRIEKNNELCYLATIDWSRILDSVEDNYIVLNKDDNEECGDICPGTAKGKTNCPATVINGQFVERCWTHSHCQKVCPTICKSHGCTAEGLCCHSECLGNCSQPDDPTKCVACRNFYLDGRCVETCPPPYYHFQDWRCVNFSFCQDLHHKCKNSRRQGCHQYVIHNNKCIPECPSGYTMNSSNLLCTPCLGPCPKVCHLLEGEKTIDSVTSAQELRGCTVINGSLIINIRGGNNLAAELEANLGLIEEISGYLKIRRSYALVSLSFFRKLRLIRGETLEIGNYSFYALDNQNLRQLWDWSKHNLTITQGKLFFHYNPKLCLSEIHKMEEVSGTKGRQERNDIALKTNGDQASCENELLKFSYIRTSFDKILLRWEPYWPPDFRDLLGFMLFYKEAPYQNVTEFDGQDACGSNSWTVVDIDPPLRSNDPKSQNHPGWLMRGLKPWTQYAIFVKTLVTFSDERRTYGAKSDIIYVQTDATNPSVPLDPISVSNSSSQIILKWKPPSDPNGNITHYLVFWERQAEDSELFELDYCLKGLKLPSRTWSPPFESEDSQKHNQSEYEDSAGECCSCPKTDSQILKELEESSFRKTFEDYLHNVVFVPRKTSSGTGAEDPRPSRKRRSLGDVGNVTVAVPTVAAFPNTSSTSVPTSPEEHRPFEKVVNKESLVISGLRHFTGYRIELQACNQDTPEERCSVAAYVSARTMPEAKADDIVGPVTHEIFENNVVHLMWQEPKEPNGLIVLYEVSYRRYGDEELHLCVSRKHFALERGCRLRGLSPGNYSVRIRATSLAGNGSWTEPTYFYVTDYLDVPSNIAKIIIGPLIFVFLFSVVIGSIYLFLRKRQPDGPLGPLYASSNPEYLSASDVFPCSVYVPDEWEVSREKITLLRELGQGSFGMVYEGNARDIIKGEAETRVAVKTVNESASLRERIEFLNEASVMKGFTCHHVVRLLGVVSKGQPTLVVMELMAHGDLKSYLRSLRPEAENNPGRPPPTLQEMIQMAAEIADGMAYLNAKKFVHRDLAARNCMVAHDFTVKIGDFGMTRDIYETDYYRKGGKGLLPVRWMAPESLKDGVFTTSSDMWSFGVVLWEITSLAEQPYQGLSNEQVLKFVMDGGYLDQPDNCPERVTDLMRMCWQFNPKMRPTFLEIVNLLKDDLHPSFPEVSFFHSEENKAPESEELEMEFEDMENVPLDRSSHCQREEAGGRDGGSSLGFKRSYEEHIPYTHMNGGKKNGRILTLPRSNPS
Sequence of PKCz (Q05513 whole entry): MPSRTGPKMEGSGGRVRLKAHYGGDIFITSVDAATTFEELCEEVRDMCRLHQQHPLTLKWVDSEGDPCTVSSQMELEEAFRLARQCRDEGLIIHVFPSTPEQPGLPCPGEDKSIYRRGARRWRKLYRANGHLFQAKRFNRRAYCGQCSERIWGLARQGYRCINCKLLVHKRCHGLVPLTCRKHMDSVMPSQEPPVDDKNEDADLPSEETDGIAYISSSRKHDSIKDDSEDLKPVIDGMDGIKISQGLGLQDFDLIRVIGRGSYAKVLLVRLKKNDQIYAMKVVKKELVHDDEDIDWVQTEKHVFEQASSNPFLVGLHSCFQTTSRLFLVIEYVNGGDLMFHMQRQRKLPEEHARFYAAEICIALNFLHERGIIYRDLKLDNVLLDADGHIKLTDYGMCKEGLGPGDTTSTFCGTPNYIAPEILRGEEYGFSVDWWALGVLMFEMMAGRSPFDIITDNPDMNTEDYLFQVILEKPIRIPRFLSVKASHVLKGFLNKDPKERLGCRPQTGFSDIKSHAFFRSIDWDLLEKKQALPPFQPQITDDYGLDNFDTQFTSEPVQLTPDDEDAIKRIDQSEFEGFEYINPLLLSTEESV

SMILES: c1cc2[nH]nc3c2c(n1)N(C1CCOCC1)CCC3 [Example 29, 6-(tetrahydro-2H-pyran-4-yl)-6,7,8,9-tetrahydro-2H-1,2,5,6-tetraazabenzo[cd]azulene]
- percentage inhibition of SGK1 (SGK1): 18 percentage
- percentage inhibition of IR (IR): 2 percentage
- percentage inhibition of PKCz (PKCz): 0 percentage
- percentage inhibition of RSK2 (RSK2): 0 percentage
- percentage inhibition of EF2K (EF2K): 0 percentage
- percentage inhibition of MST4 (MST4): 1 percentage
- percentage inhibition of MELK (MELK): 24 percentage
- percentage inhibition of PDK1 (PDK1): 2 percentage
- percentage inhibition of GCK (GCK): 67 percentage

SMILES: c1cc2[nH]nc3c2c(n1)N(C1CCC1)CCC3 [Example 22, 6-cyclobutyl-6,7,8,9-tetrahydro-2H-1,2,5,6-tetraazabenzo[cd]azulene]
- percentage inhibition of SGK1 (SGK1): 13 percentage
- percentage inhibition of IR (IR): 27 percentage
- percentage inhibition of PKCz (PKCz): 0 percentage
- percentage inhibition of RSK2 (RSK2): 8 percentage
- percentage inhibition of EF2K (EF2K): 0 percentage
- percentage inhibition of MST4 (MST4): 6 percentage
- percentage inhibition of MELK (MELK): 10 percentage
- percentage inhibition of PDK1 (PDK1): 7 percentage
- percentage inhibition of GCK (GCK): 56 percentage

SMILES: CC(C)n1ncc2c1CN(C1CCN(C)CC1)c1nccc3[nH]nc-2c13 [Example 68]
- percentage inhibition of SGK1 (SGK1): 23 percentage
- percentage inhibition of IR (IR): 0 percentage
- percentage inhibition of PKCz (PKCz): 1 percentage
- percentage inhibition of RSK2 (RSK2): 54 percentage
- percentage inhibition of EF2K (EF2K): 1 percentage
- percentage inhibition of MST4 (MST4): 0 percentage
- percentage inhibition of MELK (MELK): 72 percentage
- percentage inhibition of PDK1 (PDK1): 21 percentage
- percentage inhibition of GCK (GCK): 27 percentage

SMILES: c1cc2[nH]nc3c2c(n1)N(C1CCCC1)CCC3 [Example 23, 6-cyclopentyl-6,7,8,9-tetrahydro-2H-1,2,5,6-tetraazabenzo[cd]azulene]
- percentage inhibition of SGK1 (SGK1): 0 percentage
- percentage inhibition of IR (IR): 1 percentage
- percentage inhibition of PKCz (PKCz): 0 percentage
- percentage inhibition of RSK2 (RSK2): 5 percentage
- percentage inhibition of EF2K (EF2K): 0 percentage
- percentage inhibition of MST4 (MST4): 0 percentage
- percentage inhibition of MELK (MELK): 1 percentage
- percentage inhibition of PDK1 (PDK1): 0 percentage
- percentage inhibition of GCK (GCK): 41 percentage

SMILES: CN1CCC(N2Cc3ccccc3-c3n[nH]c4ccnc2c34)CC1 [Example 55]
- percentage inhibition of SGK1 (SGK1): 10 percentage
- percentage inhibition of IR (IR): 5 percentage
- percentage inhibition of PKCz (PKCz): 0 percentage
- percentage inhibition of RSK2 (RSK2): 21 percentage
- percentage inhibition of EF2K (EF2K): 1 percentage
- percentage inhibition of MST4 (MST4): 0 percentage
- percentage inhibition of MELK (MELK): 78 percentage
- percentage inhibition of PDK1 (PDK1): 42 percentage
- percentage inhibition of GCK (GCK): 71 percentage
